{"source": "patent US12390534B2", "about": "“Branched degradable polyethylene glycol binder” (NOF CORPORATION, priority 2019, dated 2025)", "test_system": "plasma calcium concentration", "assay": "Evaluation of physiological activity of PEGylated salmon calcitonin (blood calcium concentration)", "type": "in vivo, mouse", "design": "dose or concentration left out as unconfirmed", "conditions": "Balb/c mice, sCT dose, plasma at 1, 6, 24 hr, compared to PBS group, FIG. 16", "protocol": "The method for evaluating the physiological activity of a degradable polyethylene glycol derivative-bonded bio-related substance is not particular limited. For example, when the bio-related substance is insulin, blood sugar concentration is measured, and when it is calcitonin, blood calcium concentration is measured, by periodically collecting blood from the animal that received administration and measuring the substance in the blood by using an appropriate analytical instrument, and the like, based on which the evaluation can be performed. Specifically, in the case of insulin, a glucose measurement kit is used to monitor a decrease in glucose concentration after administration and, in the case of calcitonin, a decrease in calcium concentration after administration is monitored using a calcium measurement kit, based on which the evaluation can be performed.\nThe physiological activities of 4 groups of sCT-E(FG-200ME)2 which is SCT to which degradable polyethylene glycol derivative with a molecular weight of 40,000 is bonded and methoxy PEG 40 kDa-sCT, in which non-degradable methoxy PEG 40 kDa is bonded, each of which is obtained in Example 9, unmodified sCT, and PBS were comparatively evaluated in animal experiments. […]", "note": "Bridge positions count the residues as written; N and C are the ends. Ends that are not written are not given here."}
{"substance": "Unmodified sCT: salmon calcitonin (sCT) with the amino acid sequence CSNLSTCVLGKLSQELHKLQTYPRTNTGSGTP (SEQ ID NO: 1) (CSNLSTCVLGKLSQELHKLQTYPRTNTGSGTP-NH2; disulfide 1-7; ends not checked; listed as Oncorhynchus keta)", "values": [{"measurement": "plasma calcium concentration after administration (in words)", "result": "showed an increase in calcium concentration from 6 hr after administration"}]}
